The compounds below were run against JAK1 (Homo sapiens (Human), UniProt P23458) (assay: Analysis of JAK1 activity inhibitory capacity (ADP-Glo Kinase assay)). Conditions: JAK1 enzyme, ATP 250 uM, IRS-1tide substrate, 30° C. 40 minutes, luminescence.
JAK1, sequence (P23458 whole entry): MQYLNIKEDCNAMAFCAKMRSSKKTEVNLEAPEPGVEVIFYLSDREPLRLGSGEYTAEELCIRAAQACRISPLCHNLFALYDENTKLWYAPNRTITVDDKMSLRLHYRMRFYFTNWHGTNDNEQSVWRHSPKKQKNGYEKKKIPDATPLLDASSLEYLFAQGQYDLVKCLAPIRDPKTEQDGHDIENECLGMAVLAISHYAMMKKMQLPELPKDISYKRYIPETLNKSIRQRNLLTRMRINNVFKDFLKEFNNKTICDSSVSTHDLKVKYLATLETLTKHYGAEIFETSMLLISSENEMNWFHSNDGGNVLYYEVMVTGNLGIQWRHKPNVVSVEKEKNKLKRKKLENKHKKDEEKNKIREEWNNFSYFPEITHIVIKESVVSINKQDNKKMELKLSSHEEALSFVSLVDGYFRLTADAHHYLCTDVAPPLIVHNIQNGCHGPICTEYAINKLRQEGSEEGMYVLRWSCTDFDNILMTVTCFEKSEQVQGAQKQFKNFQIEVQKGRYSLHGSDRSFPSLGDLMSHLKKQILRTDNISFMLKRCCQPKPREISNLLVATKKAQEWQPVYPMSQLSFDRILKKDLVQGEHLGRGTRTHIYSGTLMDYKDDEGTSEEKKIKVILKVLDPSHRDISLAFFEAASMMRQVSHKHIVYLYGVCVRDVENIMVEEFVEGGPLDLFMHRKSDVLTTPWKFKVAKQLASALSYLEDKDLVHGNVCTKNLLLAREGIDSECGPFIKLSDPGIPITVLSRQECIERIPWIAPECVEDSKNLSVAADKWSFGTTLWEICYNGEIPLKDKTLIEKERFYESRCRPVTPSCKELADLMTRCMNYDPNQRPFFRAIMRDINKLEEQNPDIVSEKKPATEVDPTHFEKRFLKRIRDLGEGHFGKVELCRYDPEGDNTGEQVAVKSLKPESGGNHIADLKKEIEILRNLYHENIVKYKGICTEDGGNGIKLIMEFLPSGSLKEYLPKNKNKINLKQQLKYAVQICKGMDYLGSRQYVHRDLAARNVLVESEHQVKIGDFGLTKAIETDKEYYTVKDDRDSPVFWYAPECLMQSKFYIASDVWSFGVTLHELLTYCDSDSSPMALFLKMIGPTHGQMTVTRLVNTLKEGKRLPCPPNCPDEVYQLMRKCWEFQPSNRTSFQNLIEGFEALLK
Type: biochemical
Method: Experimental Example 1: Analysis of JAK1 activity inhibitory capacity (ADP-Glo™ Kinase assay)
An inhibitory effect of the inventive compound on JAK was identified as follows.
A control material and a test material were prepared through dilution at each concentration by using DMSO. At the same time, ATP (250 uM) and JAK's substrate (JAK1, IRS-1tide 40 ng/mL) were prepared through dilution in kinase buffer (40 mM Tris-HCl pH 7.5, 20 mM MgCl2, 0.5 mg/mL BSA, 50 uM DTT).
A test drug for each concentration, the substrate, the ATP and JAK enzymes were mixed in an eppendorf tube, and then subjected to reaction in an incubator at 30° C. for 40 minutes.
ADP-Glo ? reagent included in ADP-Glo™ Kinase Enzyme System (Promega, USA, V9571) was added to each eppendorf tube, and then subjected to reaction in the incubator at 30° C. for 40 minutes.
A kinase detection reagent included in the ADP-Glo™ Kinase Enzyme System was inserted into the eppendorf tube, after which luminescence was measured by using Wallac Victor 2TM with an integration time set to 1 second, such that an inhibitory capacity of the test material on JAKs phosphorylation was analyzed. A concentration of the compound, at which JAK enzyme activity inhibition occurs 50% compared to the control group, was determined as IC50 (nM) of an inhibitor.
An IC50 of less than 100 nM was found for `CC(C)=C(C#N)C(=O)Nc1cccc2c(-c3ccnc(NC(=O)C4CC4)c3)c[nH]c12` [Example 1, N-(4-(7-(2-cyano-3-methylbut-2-enamido)-1H-indol-3-yl)pyridin-2-yl)cyclopropanec arboxamide] in this work. An IC50 of less than 100 nM was found for `O=C(Nc1cccc2c(-c3ccnc(NC(=O)C4CC4)c3)c[nH]c12)c1cc(F)cc(F)c1` [Example 2, N-(3-(2-(cyclopropanecarboxamido)pyridin-4-yl)-1H-indol-7-yl)-3,5-difluorobenzamide] in this work. An IC50 of 100 to 1000 nM was found for `O=C(Nc1cc(-c2c[nH]c3c(NC(=O)C4CCCCC4)cccc23)ccn1)C1CC1` [Example 3, N-(3-(2-(cyclopropanecarboxamido)pyridin-4-yl)-1H-indol-7-yl)cyclohexanecarboxamide] in this work. An IC50 of less than 100 nM was found for `O=C(Nc1cccc2c(-c3ccnc(NC(=O)C4CC4)c3)c[nH]c12)c1ccnc(F)c1` [Example 4, N-(3-(2-(cyclopropanecarboxamido)pyridin-4-yl)-1H-indol-7-yl)-2-fluoroisonicotinamide] in this work. An IC50 of less than 100 nM was found for `Cc1cc(C)cc(C(=O)Nc2cccc3c(-c4ccnc(NC(=O)C5CC5)c4)c[nH]c23)c1` [Example 5, N-(3-(2-(cyclopropanecarboxamido)pyridin-4-yl)-1H-indol-7-yl)-3,5-dimethylbenzamid] in this work. An IC50 of less than 100 nM was found for `O=C(Nc1cccc2c(-c3ccnc(NC(=O)C4CC4)c3)c[nH]c12)c1cncs1` [Example 6, N-(3-(2-(cyclopropanecarboxamido)pyridin-4-yl)-1H-indol-7-yl)thiazole-5-carboxamide] in this work. An IC50 of less than 100 nM was found for `CCCC(=O)Nc1cccc2c(-c3ccnc(NC(=O)C4CC4)c3)c[nH]c12` [Example 7, N-(4-(7-butyramido-1H-indol-3-yl)pyridin-2-yl)cyclopropanecarboxamide] in this work. An IC50 of 100 to 1000 nM was found for `Cc1cnc(NC(=O)C2CC2)cc1-c1c[nH]c2c(NC(=O)CC#N)cccc12` [Example 8, N-(4-(7-(2-cyanoacetamido)-1H-indol-3-yl)-5-methylpyridin-2-yl)cyclopropanecarboxamide] in this work. An IC50 greater than 1000 nM was found for `CC(C)=C(C#N)C(=O)Nc1cccc2c(-c3cc(C)nc(NC(=O)C4CC4)c3)c[nH]c12` [Example 9, N-(4-(7-(2-cyano-3-methylbut-2-enamido)-1H-indol-3-yl)-6-methylpyridin-2-yl)cyclopropanecarboxamide] in this work. An IC50 of less than 100 nM was found for `N#CCC(=O)Nc1cccc2c(-c3ccnc(NC(=O)C4CC4)c3)c[nH]c12` [Example 10, N-(4-(7-(2-cyanoacetamido)-1H-indol-3-yl)pyridin-2-yl)cyclopropanecarboxamide] in this work. An IC50 of 100 to 1000 nM was found for `N#CC1(C(=O)Nc2cccc3c(-c4ccnc(NC(=O)C5CC5)c4)c[nH]c23)CCOCC1` [Example 11, 4-cyano-N-(3-(2-(cyclopropanecarboxamido)pyridin-4-yl)-1H-indol-7-yl)tetrahydro-2H-pyran-4-carboxamide] in this work. An IC50 greater than 1000 nM was found for `CC(C)=C(C#N)C(=O)Nc1cccc2c(-c3cc(NC(=O)C4CC4)ncc3C)c[nH]c12` [Example 12, N-(4-(7-(2-cyano-3-methylbut-2-enamido)-1H-indol-3-yl)-5-methylpyridin-2-yl)cyclopropanecarboxamide] in this work. An IC50 of 100 to 1000 nM was found for `N#CC1(CC(=O)Nc2cccc3c(-c4ccnc(NC(=O)C5CC5)c4)c[nH]c23)CC1` [Example 13, N-(4-(7-(2-(l-cyanocyclopropyl)acetamido)-1H-indol-3-yl)pyridin-2-yl)cyclopropanecarboxamide] in this work. An IC50 of less than 100 nM was found for `CC(C#N)C(=O)Nc1cccc2c(-c3ccnc(NC(=O)C4CC4)c3)c[nH]c12` (stereo not shown) [Example 14, N-(4-(7-(2-cyanopropanamido)-1H-indol-3-yl)pyridin-2-yl)cyclopropanecarboxamide] in this work. An IC50 of 100 to 1000 nM was found for `CC(C)=C(C#N)C(=O)Nc1cc(C)cc2c(-c3ccnc(NC(=O)C4CC4)c3)c[nH]c12` [Example 15, N-(4-(7-(2-cyano-3-methylbut-2-enamido)-5-methyl-1H-indol-3-yl)pyridin-2-yl)cyclo propanecarboxamide] in this work. An IC50 of 100 to 1000 nM was found for `Cc1cc(NC(=O)c2cnc(C)cn2)c2[nH]cc(-c3ccnc(NC(=O)C4CC4)c3)c2c1` [Example 16, N-(3-(2-(cyclopropanecarboxamido)pyridin-4-yl)-5-methyl-1H-indol-7-yl)-5-methylpyrazine-2-carboxamide] in this work. An IC50 of 100 to 1000 nM was found for `CC(C)=C(C)C(=O)Nc1cccc2c(-c3ccnc(NC(=O)C4CC4)c3)c[nH]c12` [Example 17, N-(4-(7-(2,3-dimethylbut-2-enamido)-1H-indol-3-yl)pyridin-2-yl)cyclopropanecarboxamide] in this work. An IC50 of 100 to 1000 nM was found for `CC(C(=O)Nc1cccc2c(-c3ccnc(NC(=O)C4CC4)c3)c[nH]c12)N1CCN(C)CC1` (stereo not shown) [Example 18, N-(4-(7-(2-(4-methylpiperazin-1-yl)propanamido)-1H-indol-3-yl)pyridin-2-yl)cyclopropanecarboxamide] in this work. An IC50 greater than 1000 nM was found for `COc1cc(-c2c[nH]c3c(NC(=O)C(C#N)=C(C)C)cccc23)cc(NC(=O)C2CC2)n1` [Example 19, N-(4-(7-(2-cyano-3-methylbut-2-enamido)-1H-indol-3-yl)-6-methoxypyridin-2-yl)cyclopropanecarboxamide] in this work. An IC50 greater than 1000 nM was found for `COc1cc(-c2c[nH]c3c(NC(=O)CC#N)cccc23)cc(NC(=O)C2CC2)n1` [Example 20, N-(4-(7-(2-cyanoacetamido)-1H-indol-3-yl)-6-methoxypyridin-2-yl)cyclopropanecarboxamide] in this work. An IC50 of 100 to 1000 nM was found for `O=C(Nc1cccc2c(-c3ccnc(NC(=O)C4CC4)c3)c[nH]c12)c1nc(C(F)(F)F)cs1` [Example 21, N-(3-(2-(cyclopropanecarboxamido)pyridin-4-yl)-1H-indol-7-yl)-4-(trifluoromethyl)thiazole-2-carboxamide] in this work. An IC50 of 100 to 1000 nM was found for `N#C/C(=C\c1ccccc1)C(=O)Nc1cccc2c(-c3ccnc(NC(=O)C4CC4)c3)c[nH]c12` [Example 22, (E)-N-(4-(7-(2-cyano-3-phenylacrylamido)-1H-indol-3-yl)pyridin-2-yl)cyclopropanecarboxamide] in this work. An IC50 of 100 to 1000 nM was found for `O=C(Nc1cccc2c(-c3ccnc(NC(=O)C4CC4)c3)c[nH]c12)c1ccc[nH]1` [Example 23, N-(3-(2-(cyclopropanecarboxamido)pyridin-4-yl)-1H-indol-7-yl)-1H-pyrrole-2-carboxamide] in this work. An IC50 of less than 100 nM was found for `Cc1ccncc1C(=O)Nc1cccc2c(-c3ccnc(NC(=O)C4CC4)c3)c[nH]c12` [Example 24, N-(3-(2-(cyclopropanecarboxamido)pyridin-4-yl)-1H-indol-7-yl)-4-methylnicotinamide] in this work. An IC50 of 100 to 1000 nM was found for `N#C/C(=C\c1cccs1)C(=O)Nc1cccc2c(-c3ccnc(NC(=O)C4CC4)c3)c[nH]c12` [Example 25, (E)-N-(4-(7-(2-cyano-3-(thiophen-2-yl)acrylamido)-1H-indol-3-yl)pyridin-2-yl)cyclopropanecarboxamide] in this work. An IC50 greater than 1000 nM was found for `CC(C)=C(C#N)C(=O)Nc1cccc2c(-c3ccnc(NC(=O)C4CC4)c3)cn(C)c12` [Example 26, N-(4-(7-(2-cyano-3-methylbut-2-enamido)-1-methyl-1H-indol-3-yl)pyridin-2-yl)cyclopropanecarboxamide] in this work. An IC50 of 100 to 1000 nM was found for `N#Cc1ccc(C(=O)Nc2cccc3c(-c4ccnc(NC(=O)C5CC5)c4)c[nH]c23)cc1` [Example 27, 4-cyano-N-(3-(2-(cyclopropanecarboxamido)pyridin-4-yl)-1H-indol-7-yl)benzamide] in this work. An IC50 of less than 100 nM was found for `Cc1ccc(C(=O)Nc2cccc3c(-c4ccnc(NC(=O)C5CC5)c4)c[nH]c23)cn1` [Example 28, N-(3-(2-(cyclopropanecarboxamido)pyridin-4-yl)-1H-indol-7-yl)-6-methylnicotinamide] in this work. An IC50 of 100 to 1000 nM was found for `O=C(Nc1cccc2c(-c3ccnc(NC(=O)C4CC4)c3)c[nH]c12)c1ccc(C(F)(F)F)nc1` [Example 29, N-(3-(2-(cyclopropanecarboxamido)pyridin-4-yl)-1H-indol-7-yl)-6-(trifluoromethyl) nicotinamide] in this work. An IC50 of less than 100 nM was found for `O=C(Nc1cccc2c(-c3ccnc(NC(=O)C4CC4)c3)c[nH]c12)c1cnc(F)c(F)c1` [Example 30, N-(3-(2-(cyclopropanecarboxamido)pyridin-4-yl)-1H-indol-7-yl)-5,6-difluoronicotinamide] in this work. An IC50 of less than 100 nM was found for `O=C(Nc1cccc2c(-c3ccnc(NC(=O)C4CC4)c3)c[nH]c12)c1cncc(F)c1` [Example 31, N-(3-(2-(cyclopropanecarboxamido)pyridin-4-yl)-1H-indol-7-yl)-5-fluoronicotinamide] in this work. An IC50 of 100 to 1000 nM was found for `O=C(Nc1cccc2c(-c3ccnc(NC(=O)C4CC4)c3)c[nH]c12)c1ccc(Cl)nc1` [Example 32, 6-chloro-N-(3-(2-(cyclopropanecarboxamido)pyridin-4-yl)-1H-indol-7-yl)nicotinamide] in this work. An IC50 of 100 to 1000 nM was found for `O=C(Nc1cccc2c(-c3ccnc(NC(=O)C4CC4)c3)c[nH]c12)c1cc[nH]n1` [Example 33, N-(3-(2-(cyclopropanecarboxamido)pyridin-4-yl)-1H-indol-7-yl)-1H-pyrazole-3-carboxamide] in this work. An IC50 of 100 to 1000 nM was found for `Cn1cccc(C(=O)Nc2cccc3c(-c4ccnc(NC(=O)C5CC5)c4)c[nH]c23)c1=O` [Example 34, N-(3-(2-(cyclopropanecarboxamido)pyridin-4-yl)-1H-indol-7-yl)-1-methyl-2-oxo-1,2-dihydropyridine-3-carboxamide] in this work.

Source: patent publication US12180185B2, “Compound as protein kinase inhibitor, and pharmaceutical composition comprising thereof” (HK INNO.N Corporation, priority 2018, dated 2024)
